According to US6391914B1, “Optically active aminopentane derivatives” (Fujimoto Brothers Co., Ltd., priority 1998, dated 2002):
Structures can show the parent of a compound that is named as a salt.

Key:
mice = test: Toxicity test in mice in the single administration; format: in vivo; conditions: 100 mg/kg p.o., observed two weeks
[1] = test system: tetrabenazine-treated rats; test: Conditioned avoidance task in the shuttle box, tetrabenazine-treated rats; format: in vivo, rat; conditions: for Minimum dose to cause conditioned avoidance reflexes (CARs) in tetrabenazine-treated rats in shuttle box: with tetrabenazine 1 mg/kg s.c.
Method: The method described in Life Sci., 58, 817-827 (1996) was used. The effects on conditioned avoidance reflex (CARs) were analyzed in the shuttle box using male and female rats (weighing 200-220 g) whose learning abilities were reduced by the administration of tetrabenazine. The instrument was constructed, according to the device described in Psychopharmacologia 10, 1-5 (1966). The male and female rats (weighing 200-220 g) were trained to cross the barrier under a conditioned stimulus. (CS, light flash and buzzer sounds). […] In addition, the unconcerned performance to this condition was noted as an intersignal reaction (IR). The rats were trained with 100 trials a day for 5 days. Each trial was carried out with 15-sec intertrial interval. Tetrabenazine saline solution was subcutaneously administered at a dose of 1 mg/kg 1 hr before the test. Then the solution of the compounds of the invention was administered at the doses of 1, 2, 2.5 and 5 mg/kg, s.c., simultaneously with tetrabenazine. The numbers of CARs, EFs and IRs were automatically counted and analyzed using one-way analysis of variance (ANOVA).
Therefore, the compound has no stimulant-like excitement.

D1 receptor = target: T1, D1 receptor (Rattus norvegicus, UniProt P18901); test: Receptor affinity, 3H-SCH-23390 binding; set-up: species or system rats
T1 construct: from tissue; host or cells: rat brain membranes
Method: (§1) The receptor solution was prepared as follows. After the rats were decapitated, brain was immediately isolated and weighed. Thereafter, brain samples were homogenized in ten times volumes of ice-cold 0.35 mol/L sucrose (pH 7.4) using glass homogenizer with Teflon pestle, which was revolted by motors. The homogenate was centrifuged at 4° C. at 900×g for 10 min and the supernatant was, furthermore, recentrifuged at 4° C. at 22,000×g for 20 min. The precipitate was suspended with addition of 5 mmol/L phosphate buffer solution (pH 7.4). After the suspension was incubated at 37° C. for 30 min, the suspension was recentrifuged at 4° C. at 20,000×g for 20 min. […]
(§2) ^3H-prazocin was used as a ligand. […] In addition, the nonspecific binding was evaluated with binding value of ^3H-prazocin in the presence of 0.1 μmol/L prazocin. […] After 10 ml of scintillation cocktail was put in it, the radioactivity was measured. Affinity of the compounds of the invention to α1 receptor was evaluated from the inhibition rate of binding between α1 receptor and the ligand.
(§3) Affinities of the compounds of the invention to receptors of α2, D1, D2, 5-HT1 and 5-HT2 were respectively determined in the same manner, while used 0.7 nmol/L ^3H-rauwolscine, 1.4 nmol/L ^3H-SCH-23390, 2.0 nmol/L spiperone, 2 nmol/L ^3H-5-HT and 0.5 nmol/L ^3H-ketanserin as each ligands. […]

α1 receptor = test: Receptor affinity, 3H-prazocin binding; set-up: species or system rats; conditions: 0.25 nmol/L 3H-prazocin; read-out: Affinity to α1 receptor: concentration showing 50% inhibition between ligand and receptor
Method: The receptor solution was prepared as follows. After the rats were decapitated, brain was immediately isolated and weighed. Thereafter, brain samples were homogenized in ten times volumes of ice-cold 0.35 mol/L sucrose (pH 7.4) using glass homogenizer with Teflon pestle, which was revolted by motors. The homogenate was centrifuged at 4° C. at 900×g for 10 min and the supernatant was, furthermore, recentrifuged at 4° C. at 22,000×g for 20 min. The precipitate was suspended with addition of 5 mmol/L phosphate buffer solution (pH 7.4). After the suspension was incubated at 37° C. for 30 min, the suspension was recentrifuged at 4° C. at 20,000×g for 20 min. The precipitate was resuspended in 10 ml of 5 mmol/L phosphate buffer solution (pH 8.0) to be receptor solution.
^3H-prazocin was used as a ligand. 0.25 nmol/L of ^3H-prazocin, the compounds of the invention and the receptor solution, which were respectively prepared in 5 mmol/L phosphate buffer (pH 8), were put in tube and the mixture was incubated at 25° C. for 90 min. In addition, the nonspecific binding was evaluated with binding value of ^3H-prazocin in the presence of 0.1 μmol/L prazocin. […] After 10 ml of scintillation cocktail was put in it, the radioactivity was measured. Affinity of the compounds of the invention to α1 receptor was evaluated from the inhibition rate of binding between α1 receptor and the ligand.

D2 receptor = target: T2, D2 receptor (Rattus norvegicus, UniProt P61169); test: Receptor affinity, spiperone binding; set-up: species or system rats
T2 construct: from tissue; host or cells: rat brain membranes
Method: as §1, §2, §3

[2] = target: T3, monoamine oxidase type-B (MAO-B) (Mus musculus, UniProt Q8BW75); test: Mice brain MAO-B inhibition (14C-phenylethylamine); format: biochemical; conditions: concentration of 10^−5 mol/L
T3 construct: the pellet was resuspended in the above buffer to be enzyme solution; from tissue; host or cells: whole brain of male C57Bl/6 mice, 40,000 g pellet
T3 sequence (Q8BW75 1-520): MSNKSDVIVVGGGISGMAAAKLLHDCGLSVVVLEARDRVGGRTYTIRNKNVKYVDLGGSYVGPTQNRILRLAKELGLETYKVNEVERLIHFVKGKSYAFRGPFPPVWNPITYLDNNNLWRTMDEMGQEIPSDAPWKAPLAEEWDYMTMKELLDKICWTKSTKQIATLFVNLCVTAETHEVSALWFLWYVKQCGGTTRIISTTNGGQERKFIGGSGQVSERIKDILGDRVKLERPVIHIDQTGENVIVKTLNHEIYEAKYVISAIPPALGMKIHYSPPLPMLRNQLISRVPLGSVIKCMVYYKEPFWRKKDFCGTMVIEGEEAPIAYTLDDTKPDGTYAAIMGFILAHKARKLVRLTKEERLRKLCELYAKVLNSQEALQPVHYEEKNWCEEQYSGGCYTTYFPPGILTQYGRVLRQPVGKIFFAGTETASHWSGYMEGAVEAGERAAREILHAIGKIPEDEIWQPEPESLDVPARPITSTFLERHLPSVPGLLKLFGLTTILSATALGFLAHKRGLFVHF
Method: After male C57B1/6 mice were decapitated, the whole brain was isolated immediately. The brain samples were weighed, and homogenized in 0.2 mol/L potassium phosphate buffer (pH 7.5) containing 1.0% EDTA-2Na by homogenizer. After the homogenate was centrifuged at 2,000 RPM for 20 min, the supernatant was centrifuged at 18,000 RPM (40,000 g) for 30 min. The pellet was resuspended, and further centrifuged in the same manner. Thereafter, the pellet was resuspended in the above buffer to be enzyme solution. All procedure was carried out at 4° C.
^14C-Labeled substrate (^14C-phenylethylamine) and enzyme solution from mice are mixed in test tube, incubated for 30 min at 37° C., and stopped the reaction with 20 μL of 6 mol/L Hcl. The reaction product was extracted with toluene-ethylacetate (1:1), and the radioactivity was measured using scintillation counter. Then, MAO-B inhibitory activity was calculated.

5-HT1 receptor = test: Receptor affinity, 3H-5-HT binding; set-up: species or system rats; conditions: 2 nmol/L 3H-5-HT; read-out: Affinity to 5-HT1 receptor: concentration showing 50% inhibition between ligand and receptor
Method: as §1, §2, §3

5-HT2 receptor = target: T4, 5-HT2 receptor (Rattus norvegicus, UniProt P14842); test: Receptor affinity, 3H-ketanserin binding; set-up: species or system rats
T4 construct: from tissue; host or cells: rat brain membranes
Method: as §1, §2, §3

T1 sequence (P18901 whole entry): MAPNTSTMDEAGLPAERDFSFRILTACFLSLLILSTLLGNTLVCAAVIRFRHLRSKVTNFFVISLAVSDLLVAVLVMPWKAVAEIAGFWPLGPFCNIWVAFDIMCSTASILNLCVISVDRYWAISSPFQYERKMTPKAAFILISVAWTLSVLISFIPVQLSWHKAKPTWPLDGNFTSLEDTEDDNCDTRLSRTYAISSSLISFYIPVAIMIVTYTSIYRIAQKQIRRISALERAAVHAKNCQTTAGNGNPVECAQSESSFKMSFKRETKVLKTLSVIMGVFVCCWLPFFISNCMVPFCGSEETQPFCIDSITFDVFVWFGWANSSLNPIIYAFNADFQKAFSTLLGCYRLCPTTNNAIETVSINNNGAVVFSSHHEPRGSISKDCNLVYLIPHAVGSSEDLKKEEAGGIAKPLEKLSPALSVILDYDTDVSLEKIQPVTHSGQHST
T4 sequence (P14842 whole entry): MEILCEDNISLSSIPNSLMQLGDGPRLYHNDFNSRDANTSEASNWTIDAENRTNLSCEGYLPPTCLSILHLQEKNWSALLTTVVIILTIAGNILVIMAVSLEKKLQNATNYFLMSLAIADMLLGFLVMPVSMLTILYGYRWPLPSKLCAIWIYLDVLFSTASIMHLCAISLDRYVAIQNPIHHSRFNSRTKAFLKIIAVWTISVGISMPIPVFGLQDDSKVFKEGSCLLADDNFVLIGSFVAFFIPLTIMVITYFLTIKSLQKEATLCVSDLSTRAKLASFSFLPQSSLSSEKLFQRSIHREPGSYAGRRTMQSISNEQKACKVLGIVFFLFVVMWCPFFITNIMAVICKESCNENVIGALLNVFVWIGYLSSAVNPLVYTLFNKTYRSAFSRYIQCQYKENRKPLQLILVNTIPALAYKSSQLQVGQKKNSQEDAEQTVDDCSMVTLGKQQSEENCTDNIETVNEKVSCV
T2 sequence (P61169 whole entry): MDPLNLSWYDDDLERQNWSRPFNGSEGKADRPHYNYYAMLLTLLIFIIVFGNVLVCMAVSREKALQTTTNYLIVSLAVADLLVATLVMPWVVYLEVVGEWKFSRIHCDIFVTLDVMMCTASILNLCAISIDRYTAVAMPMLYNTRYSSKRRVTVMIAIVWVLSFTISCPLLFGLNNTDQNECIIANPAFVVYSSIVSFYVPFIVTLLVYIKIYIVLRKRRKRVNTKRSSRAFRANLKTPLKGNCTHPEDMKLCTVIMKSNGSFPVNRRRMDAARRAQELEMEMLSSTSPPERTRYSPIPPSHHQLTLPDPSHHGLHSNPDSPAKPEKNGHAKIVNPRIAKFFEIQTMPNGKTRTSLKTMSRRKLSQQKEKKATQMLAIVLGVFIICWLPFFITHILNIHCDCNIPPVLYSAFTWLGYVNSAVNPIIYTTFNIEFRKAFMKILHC

SMILES	Survival of mice after single administration (mice)	Minimum dose to cause conditioned avoidance reflexes (CARs) in tetrabenazine-treated rats in shuttle box ([1]; s.c.)	Reduced learning function of rats administered with tetrabenazine (FIG. 2) ([1]; shuttle box, s.c.)	Intersignal reactions (IRs) ([1]; shuttle box, tetrabenazine-treated rats)	IC50 (D1 receptor) [µM]	IC50 (α1 receptor) [µM]	IC50 (D2 receptor) [µM]	Mice brain MAO-B inhibitory activity [2] [%]	IC50 (5-HT1 receptor) [µM]	IC50 (5-HT2 receptor) [µM]	inhibition at 10 µM ([2]; read-out: Mice brain MAO-B inhibitory activity) [%]
CCCNC(CCC)Cc1cc2ccccc2o1 (single isomer, unassigned; (-)) [The compound of the invention, (−)-1-(benzofuran-2-yl)-2-propylaminopentane hydrochloride]	every three numbers of mice survived	5 × 10^−2 mg mg/kg	significantly improved	did not significantly change IRs	> 10	> 10	> 10	4.7	> 10		
CCCNC(CCC)Cc1cc2ccccc2o1.Cl (single isomer, unassigned; (+)) [(+)-Isomer, (+)-1-(benzofuran-2-yl)-2-propylaminopentane hydrochloride]		2.5 mg mg/kg						1.7		> 10	
CCCNC(CCC)Cc1cc2ccccc2o1.Cl (racemic) [Racemic compound, (±)-1-(benzofuran-2-yl)-2-propylaminopentane hydrochloride]		1 mg mg/kg			> 10	> 10	> 10		> 10	20	22.9
